One assay has as its system IL-6. Description: IL-6 secretion by bone marrow-derived dendritic cells, ELISA. Format: cell-based, mouse. The conditions noted are these: different concentrations of ascr#7. As to the method:
(§1) Bone marrow was extracted from femurs of C57BL/6 mice (6-12 weeks of age). These mice were euthanized by CO2 inhalation and their femurs were removed. After removing the remaining flesh from the bone, they were cut at the metaphysis. Bone marrow was flushed out using a syringe filled with RPMI. The extracted marrow was further broken down by resuspension with syringe. The mixture was centrifuged and the pellet was re-suspended in RPMI. […] 20 ng of GM-CSF was added to each well. At day 3, and every 3 days thereafter, the media was replaced. Cells were used for experiments between day 7-9.
(§2) Bone marrow dendritic cells were collected between day 7-9 of culture. Cells were washed twice and counted. Ascr#7 in water or RPMI were placed in corresponding wells, and are allowed to dry. 10^6 cells were then plated in each well in a 24 well culture plate. Cells were left to incubate with ascr#7 for 5 minutes. Following the brief incubation, different TNFα was added to the wells. These bone marrow dendritic cells were then cultured at 37° C. for 18-72 hours. Cells were collected via the pellet generated by centrifuge. The supernatant was also preserved. EBioscience ELISA kits was used to determine the concentration of different cytokines present in each well.
A general note: In an ELISA, binding on a coated surface is turned into a signal by an enzyme label.

The next assay concerns IL-1β. Description: IL-1β secretion by bone marrow-derived dendritic cells, ELISA. The conditions noted are these: different concentrations of ascr#7. Format: cell-based, mouse. On the procedure:
as §1, §2

The test system of assay [1] is ovalbumin model of murine asthma. Description: ovalbumin model of murine asthma. Format: in vivo, mouse. The conditions noted are these: C57BL/6 mice. On the procedure: Adult C57BL/6 mice were sensitized by administering 2 ug OVA (Sigma-Aldrich) and 1 mg alum (Thermo) with 50ng ascr#7 or saline, via intraperitoneal injection, on Day 0 and 14. On day 24, the mice were challenged with intranasal administration of saline containing 100 μg OVA, under isoflurane anesthesia. Histologic sections were stained with H&E or PAS to score for eosinophilia, goblet cell metaplasia, and airway hyper-reactivity. Mice were also placed in a computer controlled small animal ventilator (SCIREQ) to score for airway hyper-reactivity following methacholine challenge. […] Animals with asthma have higher resistance of flow, which would be represented as higher “RL” values in FIG. 3B-FIG. 3F. […] Lungs were collected, postmortem, and then sectioned and stained to show the presence of eosinophils and mucus. […] In FIG. 3G, the asthmatic mouse lung, here labeled “Asthma” has a large number of mucus and eosinophils that surround the bronchioles and occupy the alveolar space; wherein the thick barriers would prohibit oxygen from easily diffusing.

Assay [2] deals with T cell transfer model of colitis. The assay is described as follows: T cell transfer model of colitis (immune dysregulation model of inflammatory bowel disease). The conditions noted are these: Rag −/− mice, 300 ng ascr#7 intraperitoneal every 3 days between day 14 and day 28. The class given is in vivo, mouse. On the procedure:
A T cell transfer model of colitis where 10^6 CD4+ T cells were transferred to adult Rag −/− mice was used, and either saline or 300 ng ascr#7 were administered via intraperitoneal injection every 3 days between day 14 and day 28. On day 28, the mice were euthanized and colon analysis was performed. n=3 mice per group. […] The normal mouse colon is long, skinny, and has discrete fecal pellets. The diseased mouse colon, with IBD, has a shortened, dilated colon, with diarrhea instead of discrete fecal pellets.

The mark [3] stands for this setting: 50ng ascr#7 intraperitoneal on Day 0 and 14, H&E or PAS sections.

For the molecule `C[C@H](CC/C=C/C(=O)O)O[C@@H]1O[C@@H](C)[C@H](O)C[C@H]1O` [ascr#7], in the assay with IL-6 (dendritic cells not stimulated with TNF-α, FIG. 1 left side), the IL-6 levels entry is “very low levels of IL-6”. Also, the “secreted IL-6 levels” value with IL-6 (dendritic cells stimulated with TNF-α, FIG. 1 right side) is “reduces these levels significantly”. Moreover, the IL-1β levels entry with IL-1β (dendritic cells not stimulated with TNF-α, FIG. 2 left side) is recorded as “very low levels of IL-1β”. Further, the “secreted IL-1β levels” value in the assay on IL-1β (dendritic cells stimulated with TNF-α, FIG. 2 right side) is reported as “reduces these levels significantly”. For the same molecule, in assay [1] (setting [3]), the development of eosinophilia entry is given as “reduces the development of” and the “development of goblet cell metaplasia” value is reported as “reduces the development of”. In addition, in assay [1] (50ng ascr#7 intraperitoneal on Day 0 and 14, stained lung sections, FIG. 3G), the “lung histology (eosinophils and mucus; boundaries between bronchioles and alveolar space)” value was “thin boundaries between the bronchioles and the alveolar space, comparable to the normal mice”. In addition, the “resistance of air flow (RL), airway hyper-reactivity following methacholine challenge” value in assay [1] (50ng ascr#7 intraperitoneal on Day 0 and 14 with OVA/alum, FIG. 3B-3F) is on record as “low resistance of air flow, with comparable levels to normal mice”. Further, in assay [2], the “development of abnormal lumen dilation” value was “markedly reduces the development of”, the “development of colon shortening” value is “markedly reduces the development of” and the development of diarrhea entry is on record as “markedly reduces the development of”. Also, the “colon appearance (length, dilation, fecal pellets)” value in assay [2] (colon analysis day 28, FIG. 4) was “normal appearing colon, which is long, skinny, and contains discrete fecal pellets”.
